In patent US20230085307A1, “PYRIDAZINONE COMPOUND AND HERBICIDE” (NISSAN CHEMICAL CORPORATION, priority 2019, published 2023):

How the values were obtained:
barnyard grass [1] = assay: Test Example 5: herbicidal effect by foliage application, plastic box (Table 20, symbol H); format: in vivo, barnyard grass (Echinochloa crus-galli); details: foliage application, 320 g/ha, evaluated three weeks after application
Summary of the method: (§1)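 Plants were sown into sterilized diluvial soil under about 1.5 cm cover and kept in a greenhouse at 25° C. to 30° C. Fourteen days on, foliage received an even spray of the diluted emulsion. Herbicidal or crop effect was judged three weeks afterwards.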

green foxtail = assay: Test Example 5: herbicidal effect by foliage application, plastic box (Table 20, symbol G); format: in vivo, green foxtail (Setaria viridis); details: foliage application, 320 g/ha, evaluated three weeks after application
Summary of the method: as §1

windgrass = assay: Test Example 5: herbicidal effect by foliage application, plastic box (Table 20, symbol L); format: in vivo, windgrass (Apera spica-venti); details: foliage application, 320 g/ha, evaluated three weeks after application
Summary of the method: as §1

southern crabgrass = assay: Test Example 5: herbicidal effect by foliage application, plastic box (Table 20, symbol F); format: in vivo, southern crabgrass (Digitaria ciliaris); details: foliage application, 320 g/ha, evaluated three weeks after application
Summary of the method: as §1

late watergrass = assay: Test Example 2: herbicidal activity, application during weed generation under submerged conditions (Table 17, symbol A); format: in vivo, late watergrass (Echinochloa oryzicola); details: AAH 320 g/ha; application during weed generation, submerged conditions
Summary of the method: (§2)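 3-wk visual-criteria score after one water-surface dose. Emulsion formulation, water-diluted to set rate; applied at 1–2 leaf stage; alluvial soil, 4 cm standing water; seeds co-sown; greenhouse 25–30° C.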

velvetleaf = assay: Test Example 5: herbicidal effect by foliage application, plastic box (Table 20, symbol M); format: in vivo, velvetleaf (Abutilon theophrasti); details: foliage application, 320 g/ha, evaluated three weeks after application
Summary of the method: as §1

oval-leafed pondweed = assay: Test Example 2: herbicidal activity, application during weed generation under submerged conditions (Table 17, symbol C); format: in vivo, oval-leafed pondweed (Monochoria vaginalis); details: AAH 320 g/ha; application during weed generation, submerged conditions
Summary of the method: as §2

redroot pigweed = assay: Test Example 5: herbicidal effect by foliage application, plastic box (Table 20, symbol N); format: in vivo, redroot pigweed (Amaranthus retroflexus); details: foliage application, 320 g/ha, evaluated three weeks after application
Summary of the method: as §1

Chinese sprangletop = assay: Test Example 3: herbicidal effect by foliage application, Wagner pot (Table 18, symbol D); format: in vivo, chinese sprangletop (Leptochloa chinensis); details: 320 g/ha
Summary of the method: (§3)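 Plants were sown in alluvial soil held under 0.1–0.5 cm standing water and grown 14 days in a greenhouse at 25–30 °C. An emulsifiable formulation, water-diluted to the set dose, was then sprayed onto the foliage, and effects were scored three weeks later using previously defined criteria.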

blackgrass = assay: Test Example 5: herbicidal effect by foliage application, plastic box (Table 20, symbol J); format: in vivo, blackgrass (Alopecurus myosuroides); details: foliage application, 320 g/ha, evaluated three weeks after application
Summary of the method: as §1

wild oat = assay: Test Example 5: herbicidal effect by foliage application, plastic box (Table 20, symbol I); format: in vivo, wild oat (Avena fatua); details: foliage application, 320 g/ha, evaluated three weeks after application
Summary of the method: as §1

chickweed = assay: Test Example 5: herbicidal effect by foliage application, plastic box (Table 20, symbol P); format: in vivo, common chickweed (Stellaria media); details: foliage application, 320 g/ha, evaluated three weeks after application
Summary of the method: as §1

barnyard grass [2] = assay: Test Example 3: herbicidal effect by foliage application, Wagner pot (Table 18, symbol H); format: in vivo, barnyard grass (Echinochloa crus-galli); details: 320 g/ha
Summary of the method: as §3

lambsquarters = assay: Test Example 5: herbicidal effect by foliage application, plastic box (Table 20, symbol O); format: in vivo, lambsquarters (Chenopodium album); details: foliage application, 320 g/ha, evaluated three weeks after application
Summary of the method: as §1

rice flat sedge = assay: Test Example 3: herbicidal effect by foliage application, Wagner pot (Table 18, symbol E); format: in vivo, rice flat sedge (Cyperus iria); details: 320 g/ha
Summary of the method: as §3

Japanese bulrush = assay: Test Example 2: herbicidal activity, application during weed generation under submerged conditions (Table 17, symbol B); format: in vivo, Japanese bulrush (Schoenoplectus juncoides); details: AAH 320 g/ha; application during weed generation, submerged conditions
Summary of the method: as §2

persian speedwell = assay: Test Example 5: herbicidal effect by foliage application, plastic box (Table 20, symbol R); format: in vivo, Persian speedwell (Veronica persica); details: foliage application, 320 g/ha, evaluated three weeks after application
Summary of the method: as §1

Italian ryegrass = assay: Test Example 5: herbicidal effect by foliage application, plastic box (Table 20, symbol K); format: in vivo, Italian ryegrass (Lolium multiflorum); details: foliage application, 320 g/ha, evaluated three weeks after application
Summary of the method: as §1

## Cc1nn(C)c(=O)c(-c2c(-c3ccc(OCc4ccccc4)cc3)sc3ccc(F)cc23)c1OCc1ccccc1 [2-065]
Barnyard grass [1]
  herbicidal effect on H: barnyard grass: 0 (Herbicidal rate of 5% or less (almost no effect))
Green foxtail
  herbicidal effect on G: green foxtail: 0 (Herbicidal rate of 5% or less (almost no effect))
windgrass
  herbicidal effect on L: windgrass: 0 (Herbicidal rate of 5% or less (almost no effect))
Southern crabgrass
  herbicidal effect on F: southern crabgrass: 0 (Herbicidal rate of 5% or less (almost no effect))
Late watergrass
  herbicidal effect rating, A: late watergrass: 3 (Herbicidal rate of 40% or more and less than 70%)
velvetleaf
  herbicidal effect on M: velvetleaf: 0 (Herbicidal rate of 5% or less (almost no effect))
oval-leafed pondweed
  herbicidal effect rating, C: oval-leafed pondweed: 0 (Herbicidal rate of 5% or less (almost no effect))
Redroot pigweed
  herbicidal effect on N: redroot pigweed: 3 (Herbicidal rate of 40% or more and less than 70%)
Chinese sprangletop
  herbicidal effect on D (Chinese sprangletop), rating 0-5: 3 (Herbicidal rate of 40% or more and less than 70%)
blackgrass
  herbicidal effect on J: blackgrass: 0 (Herbicidal rate of 5% or less (almost no effect))
Wild oat
  herbicidal effect on I: wild oat: 0 (Herbicidal rate of 5% or less (almost no effect))
chickweed
  herbicidal effect on P: chickweed: 0 (Herbicidal rate of 5% or less (almost no effect))
Barnyard grass [2]
  herbicidal effect on H (barnyard grass), rating 0-5: 3 (Herbicidal rate of 40% or more and less than 70%)
lambsquarters
  herbicidal effect on O: lambsquarters: 1 (Herbicidal rate of 5% or more and less than 20%)
Rice flat sedge
  herbicidal effect on E (rice flat sedge), rating 0-5: 3 (Herbicidal rate of 40% or more and less than 70%)
Japanese bulrush
  herbicidal effect rating, B: Japanese bulrush: 0 (Herbicidal rate of 5% or less (almost no effect))
Persian speedwell
  herbicidal effect on R: persian speedwell: 0 (Herbicidal rate of 5% or less (almost no effect))
Italian ryegrass
  herbicidal effect on K: Italian ryegrass: 0 (Herbicidal rate of 5% or less (almost no effect))
